Experimental data reported in patent US11306124B2, “Agonist agents of CD47 inducing programmed cell death and their use in the treatments of diseases associated with defects in programmed cell death” (SORBONNE UNIVERSITE, priority 2016, dated 2022).
Read-outs that look alike come from different tables or passages of the source. Blank lines part the entries; values can stand above or below the compound they belong to. Residues, ends and D or L forms follow the SMILES beside them.

Legend:
[1] = tested on: Trypsin, Chymotrypsin and Proteinase K; experiment: Proteolytic stability (incubation with proteases or in Human Serum); type: in vitro ADME
Description: Proteolytic stability studies were performed by peptides incubation with proteases (such as Trypsin, Chymotrypsin and Proteinase K) or in Human Serum as described earlier (See Karoyan et al. J. Med. Chem. 2016).

[2] = biological target: T1, CD47 (Homo sapiens, UniProt Q08722); experiment: Binding affinity by Microscale Thermophoresis on labeled Jurkat and/or MEC-1 cell membrane preparation
T1 construct: MEC-1 or Jurkat membrane preparation is labeled using the Nanotemper NT-647 labeling kit; endogenous in cells; host or cells: Jurkat and/or MEC-1 cell membrane preparation
From the text: FIG. 5 and FIG. 6. Binding curve measured by MST. The measurement method is based on the directed movement of molecules along a temperature gradient, an effect termed “thermophoresis”. A local temperature difference ΔT leads to a local change in molecule concentration (depletion or enrichment), quantified by the Soret coefficient ST: chot/ccold=exp(−STΔT). Jurkat or Mec-1 cell membrane preparations are labeled using the Nanotemper NT-647 labeling kit as described elsewhere.xliv The labeled preparation is eluted with PBS and stored at 4° C. A stock solution of each peptide is prepared in DMSO (5 mM) and then diluted with PBS. For the peptides evaluated by MST, we have kept the concentration of the NT.115-labeled membrane constant, while the concentration of the ligand (peptide) was varied. […]
Binding affinity measurements. The binding affinities of peptides, here PKT16, PKTD1, PKTD10, PKTD10-1, PKTD10-3, PKTD10-5, PKDT10-7 and PKTD10-8 for a membrane preparation from Jurkat and/or MEC-1 cells were measured by Microscale Thermophoresis^xlv on a Monolith NT115-pico system (Nanotemper Technologies, Munich, Germany).
Binding curve measured by MST. […] A local temperature difference ΔT leads to a local change in molecule concentration (depletion or enrichment), quantified by the Soret coefficient ST: chot/ccold=exp(−STΔT). […]

[3] = tested on: HCT-116 cells; type: cell-based, human; details: 2 h; for Early Apoptosis, Mean (%) / Late apoptosis, Mean (%): HCT-116 cells; for Viable, Mean (%): human
Description: 2.2.2. Cell Death Analysis by Flow Cytometry
To detect possible apoptotic processes, cells were seeded in 35 mm dishes and cultured in media containing each tested cyclic peptide for 2 hours following procedure A or B.
Procedure B: Peptides were incubated for 2 hours on HCT-116 cells. Superkiller Trail (ALX-201-115C-010) was used as a positive pro-apoptotic control. Cells were analyzed by cytofluorometry using FITC Annexin V apoptosis detection kit with 7-AAD from BIOLEGEND (BLE640922).

[4] = tested on: MCF-7, HCT-116, BxPC3 and A549 cancer cells; experiment: Cell viability and proliferation of tumor cells (cytotoxic assay and direct cell counting); type: cell-based, human; details: 2 hours, 10 to 50 μM peptide concentration
Description: The effects of several cyclic peptides of the invention on the proliferation of tumor cells were evaluated on 5 cell lines (MCF-7, human breast cancer cells; HCT-116, human colon cancer cells; BxPC3, human pancreas cancer cells and A549, human lung cancer cells) by cytotoxic assay and by counting directly the number of cells.
Those cyclic peptides were dissolved in DMSO at the following concentrations: 0, 5, 10, 25, 50 and 100 μM.
Culture media used for these assays are: EMEM=10% SVF for MCF-7 and Wi38; RPMI […] SVF for HCT-116 and BxPC3 and F-12K=10% SVF for A549.
500 cells were seeded in 96-well plates, incubated at 37° C. for 24 hours, and treated by the cyclic peptides at the different concentrations and controls for 2 h.

[5] = tested on: B-chronic lymphocytic leukemia (CLL) primary cells; details: cited from earlier work; for induction of caspase-independent PCD: soluble peptide, CLL primary cells
[6] = peptide concentration 12.5 (μM)

T1 sequence (Q08722 19-323): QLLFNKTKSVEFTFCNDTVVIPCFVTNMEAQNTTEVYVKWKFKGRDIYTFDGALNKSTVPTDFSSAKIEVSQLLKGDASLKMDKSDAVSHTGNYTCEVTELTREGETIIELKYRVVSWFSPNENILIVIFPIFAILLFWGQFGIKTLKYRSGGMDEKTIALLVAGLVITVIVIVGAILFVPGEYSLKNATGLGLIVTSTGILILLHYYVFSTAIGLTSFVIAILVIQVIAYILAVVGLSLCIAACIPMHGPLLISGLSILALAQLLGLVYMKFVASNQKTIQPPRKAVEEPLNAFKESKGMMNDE

Compound: CSCC[C@@H]1NC(=O)[C@H](C(C)C)NC(=O)[C@H](C(C)C)NC(=O)[C@H](Cc2ccc(O)cc2)NC(=O)[C@H](Cc2ccccc2)NC(=O)[C@H](C(C)C)NC(=O)[C@H](C(C)C)NC(=O)[C@H](CCCCN)NC(=O)[C@H](C(C)C)NC(=O)[C@H](CO)NC(=O)[C@H](CC(C)C)NC(=O)[C@@H]2CCCN2C(=O)[C@H]2CCCN2C(=O)[C@H](Cc2c[nH]c3ccccc23)NC1=O [PKD8, —F—Y—V—V—M—W—p—P—L—S—V—K—V—V—] (HELM PEPTIDE1{L.S.V.K.V.V.F.Y.V.V.M.W.[dP].P}$PEPTIDE1,PEPTIDE1,1:R1-14:R2$$$V2.0)
stability toward proteases [1]: fully stable

Compound: CCCC[C@@H]1NC(=O)[C@H](C(C)C)NC(=O)[C@H](C(C)C)NC(=O)[C@H](Cc2ccc(O)cc2)NC(=O)[C@H](Cc2ccccc2)NC(=O)[C@H](C(C)C)NC(=O)[C@H](C(C)C)NC(=O)[C@H](CCCCN)NC(=O)[C@H](C(C)C)NC(=O)[C@H](CO)NC(=O)[C@H](CC(C)C)NC(=O)[C@@H]2CCCN2C(=O)[C@H]2CCCN2C(=O)[C@H](Cc2c[nH]c3ccccc23)NC1=O [PKD9, —F—Y—V—V—X—W—p—P—L—S—V—K—V—V— X = NLe] (HELM PEPTIDE1{L.S.V.K.V.V.F.Y.V.V.[Nle].W.[dP].P}$PEPTIDE1,PEPTIDE1,1:R1-14:R2$$$V2.0)
stability toward proteases [1]: fully stable

Compound: CC(C)C[C@@H]1NC(=O)[C@@H]2CCCN2C(=O)[C@H]2CCCN2C(=O)[C@H](Cc2c[nH]c3ccccc23)NC(=O)[C@H](CCCCN)NC(=O)[C@H](C(C)C)NC(=O)[C@H](C(C)C)NC(=O)[C@H](Cc2ccc(O)cc2)NC(=O)[C@H](Cc2ccccc2)NC(=O)[C@H](C(C)C)NC(=O)[C@H](C(C)C)NC(=O)[C@H](CCCCN)NC(=O)[C@H](C(C)C)NC(=O)[C@H](CO)NC1=O [PKD10, —F—Y—V—V—K—W—p—P—L—S—V—K—V—V—] (HELM PEPTIDE1{L.S.V.K.V.V.F.Y.V.V.K.W.[dP].P}$PEPTIDE1,PEPTIDE1,1:R1-14:R2$$$V2.0)
stability toward proteases [1]: fully stable

binding affinities (Kd), order of magnitude in words [2]: micromolar range
Compound: CCCC[C@H](NC(=O)[C@@H](NC(=O)[C@@H](NC(=O)[C@H](Cc1ccc(O)cc1)NC(=O)[C@H](Cc1ccccc1)NC(=O)[C@H](CCCNC(=N)N)N(C)C(=O)[C@H](N)CCCCN)C(C)C)C(C)C)C(=O)N[C@@H](Cc1c[nH]c2ccccc12)C(=O)N[C@@H](CCCCN)C(=O)N[C@H](CCCCN)C(=O)O [PKT16, (D)Lys-(N-Me)Arg-Phe-Tyr-Val-Val-Nle-Trp-Lys-(D)Lys] (HELM PEPTIDE1{[dK].[meR].F.Y.V.V.[Nle].W.K.[dK]}$$$$V2.0; N-terminus and C-terminus assumed)

Compound: CSCC[C@@H]1NC(=O)[C@H](C(C)C)NC(=O)[C@H](C(C)C)NC(=O)[C@H](Cc2ccc(O)cc2)NC(=O)[C@H](Cc2ccccc2)NC(=O)[C@H](CCCNC(=N)N)NC(=O)[C@H](CO)NC(=O)[C@H](CO)NC(=O)[C@H](CC(N)=O)NC(=O)[C@H](C(C)C)NC(=O)[C@H](C(C)C)NC(=O)[C@H](CCCCN)NC(=O)[C@H](C)NC(=O)[C@H](CO)NC(=O)[C@H](CC(C)C)NC(=O)CNC(=O)[C@@H]2CCCN2C(=O)[C@H]2CCCN2C(=O)[C@H](CCCCN)NC(=O)[C@H](Cc2c[nH]c3ccccc23)NC1=O [PKTD10-4, —S—R—F—Y—V—V—M—W—K—p—P—G—L—S—A—K—V—V—N—S—] (HELM PEPTIDE1{S.R.F.Y.V.V.M.W.K.[dP].P.G.L.S.A.K.V.V.N.S}$PEPTIDE1,PEPTIDE1,1:R1-20:R2$$$V2.0)
Early Apoptosis, Mean (%) [3, 6]: 9.27%
Late apoptosis, Mean (%) [3, 6]: 4.39%
Early Apoptosis, Mean (%) ([3]; peptide concentration 25 (μM)): 11.91%
Late apoptosis, Mean (%) ([3]; peptide concentration 25 (μM)): 5.54%
Early Apoptosis, Mean (%) ([3]; peptide concentration 50 (μM)): 15.68%
Late apoptosis, Mean (%) ([3]; peptide concentration 50 (μM)): 7.53%
Viable, Mean (%) ([3]; 12.5 μM): 85.90%
Viable, Mean (%) ([3]; 25 μM): 82.41%
Viable, Mean (%) ([3]; 50 μM): 76.52%
viability in all cell strains [4]: dose-dependent viability decrease

Compound: CSCC[C@@H]1NC(=O)[C@H](C(C)C)NC(=O)[C@H](C(C)C)NC(=O)[C@H](Cc2ccc(O)cc2)NC(=O)[C@H](Cc2ccccc2)NC(=O)[C@H](CCCNC(=N)N)NC(=O)[C@H](CC(N)=O)NC(=O)[C@H](C(C)C)NC(=O)[C@H](C(C)C)NC(=O)[C@H](CCCCN)NC(=O)[C@H](C(C)C)NC(=O)[C@H](CO)NC(=O)[C@H](CC(C)C)NC(=O)CNC(=O)[C@H](CO)NC(=O)[C@@H]2CCCN2C(=O)[C@H]2CCCN2C(=O)[C@H](CCC(N)=O)NC(=O)[C@H](CCCCN)NC(=O)[C@H](Cc2c[nH]c3ccccc23)NC1=O [PKTD12, —R—F—Y—V—V—M—W—K—Q—p—P—S—G—L—S—V—K—V—V—N—] (HELM PEPTIDE1{R.F.Y.V.V.M.W.K.Q.[dP].P.S.G.L.S.V.K.V.V.N}$PEPTIDE1,PEPTIDE1,1:R1-20:R2$$$V2.0)
Early Apoptosis, Mean (%) [3, 6]: 5.78%
Late apoptosis, Mean (%) [3, 6]: 3.11%
Early Apoptosis, Mean (%) ([3]; peptide concentration 25 (μM)): 7.15%
Late apoptosis, Mean (%) ([3]; peptide concentration 25 (μM)): 3.26%
Early Apoptosis, Mean (%) ([3]; peptide concentration 50 (μM)): 19.16%
Late apoptosis, Mean (%) ([3]; peptide concentration 50 (μM)): 6.80%
Viable, Mean (%) ([3]; 12.5 μM): 90.87%
Viable, Mean (%) ([3]; 25 μM): 89.42%
Viable, Mean (%) ([3]; 50 μM): 73.78%
viability in all cell strains [4]: dose-dependent viability decrease

Compound: K-RFYVVMWK-K (KRFYVVMWKK; listed as Homo sapiens) [Peptide 4N1K, soluble decapeptide that mimics the C-terminal domain of TSP-1]
selective elimination of leukemic B-cells versus healthy B-lymphocytes or resting normal B-cells from CLL patients ([5]; CD47 ligation): specifically eliminates leukemic B-cells
induction of caspase-independent PCD [5]: induces caspase-independent PCD

Compound: KRFYGGMWKK [Peptide 4NGG, linear negative control peptide, 4N1K mutated in two amino acids]
induction of caspase-independent PCD [5]: unable to induce PCD
